In experiment [1] the test system is M. tuberculosis QcrB T313I mutant strain. The class given is cell-based, Mycobacterium tuberculosis.
Experiment [2] relates to M. tuberculosis QcrB M342T mutant strain. The class given is cell-based, Mycobacterium tuberculosis.

Data on five compounds can be found in paper PMC6089501 (Journal of Medicinal Chemistry, 2018).

Values after ≈ are worked out from the molar mass of the structure shown.

On to `NC(=O)c1sc(N2CCOCC2)cc1OCCc1ccccc1` [Compound 1, 5-Morpholino-3-phenethoxythiophene-2-carboxamide], for which, in experiment [1], the “MIC T313I” value is 53 µM (≈ 17.6 µg/mL) and the “fold shift T313I” value worked out at 41. Also, in experiment [2], the “MIC M342T” value amounted to 25 µM (≈ 8.31 µg/mL) and the “fold shift M342T” value was determined as 19.
Taken in the same sequence, the figures for `CNC(=O)c1sc(N2CCOCC2)cc1OCCc1ccccc1` [Compound 21, N-Methyl-5-morpholino-3-(2-phenylethoxy)thiophene-2-carboxamide] were greater than 20 µM, greater than 250, 4.8 µM (≈ 1.66 µg/mL) and 60.
Taken in the same sequence, the figures for `NC(=O)c1sc(-c2ccncc2)cc1OCCc1ccccc1` [Compound 35, 3-(2-Phenylethoxy)-5-(4-pyridyl)thiophene-2-carboxamide] were greater than 50 µM, greater than 8.6, greater than 20 µM and greater than 3.
With `NC(=O)c1sc(N2CCOCC2)cc1OCCc1ccc(OC(F)(F)F)cc1` [Compound 37, 5-Morpholino-3-[2-[4-(trifluoromethoxy)phenyl]ethoxy]thiophene-2-carboxamide], in experiment [1], the “MIC T313I” value is 11 µM (≈ 4.58 µg/mL) and the “fold shift T313I” value was 46.
As to `NC(=O)c1sc(N2CCOCC2)cc1OCCc1cccc(F)c1` [Compound 39, 3-[2-(3-Fluorophenyl)ethoxy]-5-morpholinothiophene-2-carboxamide], in experiment [1], the “MIC T313I” value amounted to 59 µM (≈ 20.7 µg/mL) and the “fold shift T313I” value stood at 110. Further, in experiment [2], the “MIC M342T” value turned out to be 7 µM (≈ 2.45 µg/mL) and the “fold shift M342T” value was determined as 14.
